In ChEMBL document CHEMBL1130033, “17 beta-(3-furyl)-5 beta-androstane-3 beta, 14 beta, 17 alpha-triol (PST 2238). A very potent antihypertensive agent with a novel mechanism of action” (J Med Chem, 1997):

Biological target: Sodium/potassium-transporting ATPase
Assay: Ability to displace [3H]ouabain from Na+/K+ ATPase in dog kidney.
Assay type: protein-complex assay, Canis lupus familiaris

C[C@]12CC[C@H](O)C[C@H]1CC[C@@H]1[C@@H]2CC[C@]2(C)[C@@](O)(c3ccoc3)CC[C@]12O [ROSTAFUROXIN]
IC50: 1500 nM
